Assay results as given in ChEMBL document CHEMBL3102738, “Synthesis and biological evaluation of nitric oxide-donating analogues of sulindac for prostate cancer treatment” (Bioorg Med Chem, 2014).

How the values were obtained:
Assay type in all cases: functional
PC-3 [1] = assay: Cytotoxicity against human PC3 cells assessed as cell viability at 50 uM after 72 hrs by crystal violet method (reference value: 95.69 +/- 7.66%); details: PC-3, 72 h, read-out: Activity
PC-3 [2] = assay: Cytotoxicity against human PC3 cells assessed as cell viability at 50 uM after 24 hrs by crystal violet method (reference value: 99.09 +/- 9.87%); details: PC-3, 24 h, read-out: Activity
PC-3 [3] = assay: Cytotoxicity against human PC3 cells assessed as cell viability at 50 uM after 48 hrs by crystal violet method (reference value: 100.87 +/- 4.87%); details: PC-3, 48 h, read-out: Activity

In the case of `CC1=C(CC(=O)OCc2cccc(Oc3no[n+]([O-])c3S(=O)(=O)c3ccccc3)c2)c2cc(F)ccc2/C1=C\c1ccc([S+](C)[O-])cc1` (stereo not given), the viability at 50 µM (PC-3 [1]) was 51.9%, the viability at 50 µM (PC-3 [2]) was 71.8% and the viability at 50 µM (PC-3 [3]) was 56.2%.

`CC1=C(CC(=O)OC(CO[N+](=O)[O-])CO[N+](=O)[O-])c2cc(F)ccc2/C1=C\c1ccc(S(C)(=O)=O)cc1` gave a viability at 50 µM (PC-3 [1]) of 89.4%, a viability at 50 µM (PC-3 [2]) of 88% and a viability at 50 µM (PC-3 [3]) of 89%.

In the case of `CC1=C(CC(=O)OCCCCO)c2cc(F)ccc2/C1=C\c1ccc(S(C)(=O)=O)cc1`, the viability at 50 µM (PC-3 [1]) was 86.6%, the viability at 50 µM (PC-3 [2]) was 87.4% and the viability at 50 µM (PC-3 [3]) was 81.5%.

`CC1=C(CC(=O)OCCCCO[N+](=O)[O-])c2cc(F)ccc2/C1=C\c1ccc([S+](C)[O-])cc1` (stereo not given) showed a viability at 50 µM (PC-3 [1]) of 24.5%, a viability at 50 µM (PC-3 [2]) of 58.8% and a viability at 50 µM (PC-3 [3]) of 35.5%.

`CC1=C(CC(=O)OCCO[N+](=O)[O-])c2cc(F)ccc2/C1=C\c1ccc(S(C)(=O)=O)cc1` was tested, and the viability at 50 µM (PC-3 [1]) was 84.4%, the viability at 50 µM (PC-3 [2]) was 84.4% and the viability at 50 µM (PC-3 [3]) was 96.2%.

`CC1=C(CC(=O)OCC#CCOc2no[n+]([O-])c2S(=O)(=O)c2ccccc2)c2cc(F)ccc2/C1=C\c1ccc(S(C)(=O)=O)cc1` gave a viability at 50 µM (PC-3 [1]) of 27.3%, a viability at 50 µM (PC-3 [2]) of 36.5% and a viability at 50 µM (PC-3 [3]) of 38%.

`CSc1ccc(/C=C2/C(C)=C(CC(=O)OCC(CO[N+](=O)[O-])(CO[N+](=O)[O-])CO[N+](=O)[O-])c3cc(F)ccc32)cc1` was tested, and the viability at 50 µM (PC-3 [1]) was 110%, the viability at 50 µM (PC-3 [2]) was 88.3% and the viability at 50 µM (PC-3 [3]) was 101%.

With `CSc1ccc(/C=C2/C(C)=C(CC(=O)OCC#CCOc3no[n+]([O-])c3S(=O)(=O)c3ccccc3)c3cc(F)ccc32)cc1` the viability at 50 µM (PC-3 [1]) was 14.9%, the viability at 50 µM (PC-3 [2]) was 25.4% and the viability at 50 µM (PC-3 [3]) was 20.8%.

In the case of `CC1=C(CC(=O)OCCCCCCOc2no[n+]([O-])c2S(=O)(=O)c2ccccc2)c2cc(F)ccc2/C1=C\c1ccc(S(C)(=O)=O)cc1`, the viability at 50 µM (PC-3 [1]) was 15.4%, the viability at 50 µM (PC-3 [2]) was 42.4% and the viability at 50 µM (PC-3 [3]) was 24.2%.

In the case of `CC1=C(CC(=O)/N=c2\c[n+](-c3ccccc3)[n-]o2)c2cc(F)ccc2/C1=C\c1ccc(S(C)(=O)=O)cc1`, the viability at 50 µM (PC-3 [1]) was 81.1%, the viability at 50 µM (PC-3 [2]) was 108% and the viability at 50 µM (PC-3 [3]) was 74.5%.

Work on `CC1=C(CC(=O)OCCCCCCO[N+](=O)[O-])c2cc(F)ccc2/C1=C\c1ccc([S+](C)[O-])cc1` (stereo not given) yielded a viability at 50 µM (PC-3 [1]) of 88.1%, a viability at 50 µM (PC-3 [2]) of 105% and a viability at 50 µM (PC-3 [3]) of 72.7%.

For `CSc1ccc(/C=C2/C(C)=C(CC(=O)OCCO[N+](=O)[O-])c3cc(F)ccc32)cc1`, the viability at 50 µM (PC-3 [1]) was 91.2%, the viability at 50 µM (PC-3 [2]) was 95.6% and the viability at 50 µM (PC-3 [3]) was 119%.

Compound `CC1=C(CC(=O)OCC#CCOc2no[n+]([O-])c2S(=O)(=O)c2ccccc2)c2cc(F)ccc2/C1=C\c1ccc([S+](C)[O-])cc1` (stereo not given) has a viability at 50 µM (PC-3 [1]) of 0%, a viability at 50 µM (PC-3 [2]) of 0% and a viability at 50 µM (PC-3 [3]) of 0%.

`CC1=C(CC(=O)OCCCOc2no[n+]([O-])c2S(=O)(=O)c2ccccc2)c2cc(F)ccc2/C1=C\c1ccc([S+](C)[O-])cc1` (stereo not given) was tested, and the viability at 50 µM (PC-3 [1]) was 0%, the viability at 50 µM (PC-3 [2]) was 0% and the viability at 50 µM (PC-3 [3]) was 0%.

For `CC1=C(CC(=O)OCCCCO[N+](=O)[O-])c2cc(F)ccc2/C1=C\c1ccc(S(C)(=O)=O)cc1`, the viability at 50 µM (PC-3 [1]) was 54.7%, the viability at 50 µM (PC-3 [2]) was 68.7% and the viability at 50 µM (PC-3 [3]) was 52.9%.

Work on `CC1=C(CC(=O)OCCCCOc2no[n+]([O-])c2S(=O)(=O)c2ccccc2)c2cc(F)ccc2/C1=C\c1ccc(S(C)(=O)=O)cc1` yielded a viability at 50 µM (PC-3 [1]) of 38.8%, a viability at 50 µM (PC-3 [2]) of 67.9% and a viability at 50 µM (PC-3 [3]) of 49.9%.

For `CSc1ccc(/C=C2/C(C)=C(CC(=O)OCCCCCCO[N+](=O)[O-])c3cc(F)ccc32)cc1`, the viability at 50 µM (PC-3 [1]) was 104%, the viability at 50 µM (PC-3 [2]) was 92.4% and the viability at 50 µM (PC-3 [3]) was 85.1%.

`CSc1ccc(/C=C2/C(C)=C(CC(=O)OC(CO[N+](=O)[O-])CO[N+](=O)[O-])c3cc(F)ccc32)cc1` showed a viability at 50 µM (PC-3 [1]) of 93.5%, a viability at 50 µM (PC-3 [2]) of 91.2% and a viability at 50 µM (PC-3 [3]) of 92.3%.

Compound `CSc1ccc(/C=C2/C(C)=C(CC(=O)OCc3cccc(Oc4no[n+]([O-])c4S(=O)(=O)c4ccccc4)c3)c3cc(F)ccc32)cc1` has a viability at 50 µM (PC-3 [1]) of 82.7%, a viability at 50 µM (PC-3 [2]) of 102% and a viability at 50 µM (PC-3 [3]) of 79.7%.

`CSc1ccc(/C=C2/C(C)=C(CC(=O)OCCCCO)c3cc(F)ccc32)cc1` gave a viability at 50 µM (PC-3 [1]) of 84%, a viability at 50 µM (PC-3 [2]) of 98.2% and a viability at 50 µM (PC-3 [3]) of 80.5%.

Work on `CC1=C(CC(=O)OCC(CO[N+](=O)[O-])(CO[N+](=O)[O-])CO[N+](=O)[O-])c2cc(F)ccc2/C1=C\c1ccc(S(C)(=O)=O)cc1` yielded a viability at 50 µM (PC-3 [1]) of 95.3%, a viability at 50 µM (PC-3 [2]) of 101% and a viability at 50 µM (PC-3 [3]) of 84.5%.

`CC1=C(CC(=O)OCCO[N+](=O)[O-])c2cc(F)ccc2/C1=C\c1ccc([S+](C)[O-])cc1` (stereo not given) showed a viability at 50 µM (PC-3 [1]) of 35.5%, a viability at 50 µM (PC-3 [2]) of 73% and a viability at 50 µM (PC-3 [3]) of 54.9%.

`CC1=C(CC(=O)OCCCCOc2no[n+]([O-])c2S(=O)(=O)c2ccccc2)c2cc(F)ccc2/C1=C\c1ccc([S+](C)[O-])cc1` (stereo not given) was tested, and the viability at 50 µM (PC-3 [1]) was 16.5%, the viability at 50 µM (PC-3 [2]) was 32.3% and the viability at 50 µM (PC-3 [3]) was 21.8%.

In the case of `CSc1ccc(/C=C2/C(C)=C(CC(=O)/N=c3\c[n+](-c4ccccc4)[n-]o3)c3cc(F)ccc32)cc1`, the viability at 50 µM (PC-3 [1]) was 77%, the viability at 50 µM (PC-3 [2]) was 89% and the viability at 50 µM (PC-3 [3]) was 90.8%.

With `CSc1ccc(/C=C2/C(C)=C(CC(=O)O)c3cc(F)ccc32)cc1` [SULINDAC SULFIDE] the viability at 50 µM (PC-3 [1]) was 105%, the viability at 50 µM (PC-3 [2]) was 99.2% and the viability at 50 µM (PC-3 [3]) was 93.7%.

In the case of `CSc1ccc(/C=C2/C(C)=C(CC(=O)OCCCCO[N+](=O)[O-])c3cc(F)ccc32)cc1`, the viability at 50 µM (PC-3 [1]) was 17.1%, the viability at 50 µM (PC-3 [2]) was 49.4% and the viability at 50 µM (PC-3 [3]) was 28.4%.

`CC1=C(CC(=O)Oc2cccc(Oc3no[n+]([O-])c3S(=O)(=O)c3ccccc3)c2)c2cc(F)ccc2/C1=C\c1ccc([S+](C)[O-])cc1` (stereo not given) gave a viability at 50 µM (PC-3 [1]) of 66.3%, a viability at 50 µM (PC-3 [2]) of 74% and a viability at 50 µM (PC-3 [3]) of 67.7%.

In the case of `CC1=C(CC(=O)OC(CO[N+](=O)[O-])CO[N+](=O)[O-])c2cc(F)ccc2/C1=C\c1ccc([S+](C)[O-])cc1` (stereo not given), the viability at 50 µM (PC-3 [1]) was 30.2%, the viability at 50 µM (PC-3 [2]) was 46.5% and the viability at 50 µM (PC-3 [3]) was 44.9%.

`CC1=C(CC(=O)OCC(CO[N+](=O)[O-])(CO[N+](=O)[O-])CO[N+](=O)[O-])c2cc(F)ccc2/C1=C\c1ccc([S+](C)[O-])cc1` (stereo not given) was tested, and the viability at 50 µM (PC-3 [1]) was 89.6%, the viability at 50 µM (PC-3 [2]) was 86% and the viability at 50 µM (PC-3 [3]) was 79.8%.

In the case of `CC1=C(CC(=O)Oc2cccc(Oc3no[n+]([O-])c3S(=O)(=O)c3ccccc3)c2)c2cc(F)ccc2/C1=C\c1ccc(S(C)(=O)=O)cc1`, the viability at 50 µM (PC-3 [1]) was 0%, the viability at 50 µM (PC-3 [2]) was 0% and the viability at 50 µM (PC-3 [3]) was 0%.

Work on `CSc1ccc(/C=C2/C(C)=C(CC(=O)OCCOCCOc3no[n+]([O-])c3S(=O)(=O)c3ccccc3)c3cc(F)ccc32)cc1` yielded a viability at 50 µM (PC-3 [1]) of 50.8%, a viability at 50 µM (PC-3 [2]) of 55.2% and a viability at 50 µM (PC-3 [3]) of 71%.

For `CSc1ccc(/C=C2/C(C)=C(CC(=O)OC/C=C\COc3no[n+]([O-])c3S(=O)(=O)c3ccccc3)c3cc(F)ccc32)cc1`, the viability at 50 µM (PC-3 [1]) was 20.6%, the viability at 50 µM (PC-3 [2]) was 30.6% and the viability at 50 µM (PC-3 [3]) was 31.4%.

Compound `CC1=C(CC(=O)OC/C=C\COc2no[n+]([O-])c2S(=O)(=O)c2ccccc2)c2cc(F)ccc2/C1=C\c1ccc(S(C)(=O)=O)cc1` has a viability at 50 µM (PC-3 [1]) of 0%, a viability at 50 µM (PC-3 [2]) of 0% and a viability at 50 µM (PC-3 [3]) of 0%.

Work on `CC1=C(CC(=O)OCCCCCCO[N+](=O)[O-])c2cc(F)ccc2/C1=C\c1ccc(S(C)(=O)=O)cc1` yielded a viability at 50 µM (PC-3 [1]) of 64%, a viability at 50 µM (PC-3 [2]) of 93.3% and a viability at 50 µM (PC-3 [3]) of 59%.

With `CSc1ccc(/C=C2/C(C)=C(CC(=O)OCCCCCCOc3no[n+]([O-])c3S(=O)(=O)c3ccccc3)c3cc(F)ccc32)cc1` the viability at 50 µM (PC-3 [1]) was 29.2%, the viability at 50 µM (PC-3 [2]) was 57.2% and the viability at 50 µM (PC-3 [3]) was 41.7%.
